The target in one assay is T1, F256A CLC-Ka (Homo sapiens, UniProt P51800, F256A).
T1 sequence (P51800 1-687 F256A): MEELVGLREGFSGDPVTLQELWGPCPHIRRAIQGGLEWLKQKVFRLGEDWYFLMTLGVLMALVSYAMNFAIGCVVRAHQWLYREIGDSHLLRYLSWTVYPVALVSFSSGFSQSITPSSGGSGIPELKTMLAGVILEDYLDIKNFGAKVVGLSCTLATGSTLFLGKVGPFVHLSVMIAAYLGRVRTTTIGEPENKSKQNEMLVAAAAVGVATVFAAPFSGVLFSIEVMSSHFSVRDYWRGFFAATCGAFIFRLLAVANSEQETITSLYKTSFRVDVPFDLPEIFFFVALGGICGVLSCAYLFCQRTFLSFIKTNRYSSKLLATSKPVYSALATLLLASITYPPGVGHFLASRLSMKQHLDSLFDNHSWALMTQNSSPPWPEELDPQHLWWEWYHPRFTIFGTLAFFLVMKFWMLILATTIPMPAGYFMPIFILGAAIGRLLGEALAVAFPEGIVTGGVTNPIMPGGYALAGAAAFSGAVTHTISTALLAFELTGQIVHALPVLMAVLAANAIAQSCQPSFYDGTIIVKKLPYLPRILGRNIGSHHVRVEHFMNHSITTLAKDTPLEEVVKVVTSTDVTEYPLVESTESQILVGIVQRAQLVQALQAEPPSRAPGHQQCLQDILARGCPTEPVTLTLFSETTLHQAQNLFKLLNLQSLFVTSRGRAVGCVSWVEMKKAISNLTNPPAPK
T1 sequence (Q8WZ55 1-320 Y98A partner): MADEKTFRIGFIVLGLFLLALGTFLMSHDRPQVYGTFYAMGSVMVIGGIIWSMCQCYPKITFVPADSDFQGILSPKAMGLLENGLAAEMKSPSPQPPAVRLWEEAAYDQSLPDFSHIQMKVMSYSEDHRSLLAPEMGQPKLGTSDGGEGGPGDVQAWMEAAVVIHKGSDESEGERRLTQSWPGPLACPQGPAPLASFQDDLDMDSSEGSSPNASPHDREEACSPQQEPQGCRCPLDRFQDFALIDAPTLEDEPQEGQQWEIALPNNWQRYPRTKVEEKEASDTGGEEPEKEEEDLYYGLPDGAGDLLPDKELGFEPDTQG
Type of assay: cell-based. The following applies: 200 μM NFA.

For a further assay, the target named is T2, CLC-K1 without barttin (Rattus norvegicus, UniProt Q06393).
T2 sequence (Q06393 1-687): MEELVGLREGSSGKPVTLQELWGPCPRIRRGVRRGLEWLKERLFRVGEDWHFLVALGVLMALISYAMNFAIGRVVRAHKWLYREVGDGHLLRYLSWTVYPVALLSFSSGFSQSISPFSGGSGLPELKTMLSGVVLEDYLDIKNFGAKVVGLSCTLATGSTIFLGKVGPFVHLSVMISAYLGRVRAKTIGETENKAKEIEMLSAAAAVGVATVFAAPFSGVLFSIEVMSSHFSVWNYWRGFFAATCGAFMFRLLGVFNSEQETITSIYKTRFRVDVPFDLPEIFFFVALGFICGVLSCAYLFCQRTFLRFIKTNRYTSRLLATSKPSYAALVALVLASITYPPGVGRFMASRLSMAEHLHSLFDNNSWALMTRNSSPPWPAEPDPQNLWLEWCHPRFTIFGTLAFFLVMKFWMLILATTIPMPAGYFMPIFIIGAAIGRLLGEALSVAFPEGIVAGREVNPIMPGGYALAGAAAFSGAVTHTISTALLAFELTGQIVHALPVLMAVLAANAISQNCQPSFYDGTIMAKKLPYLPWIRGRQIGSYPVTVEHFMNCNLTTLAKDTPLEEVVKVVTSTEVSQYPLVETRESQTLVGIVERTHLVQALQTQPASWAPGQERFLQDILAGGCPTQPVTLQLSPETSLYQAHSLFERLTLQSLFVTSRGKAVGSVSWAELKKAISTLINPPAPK
The assay is described as follows: NFA effect on WT CLC-K1 without barttin, voltage clamp in Xenopus oocytes. Type of assay: cell-based.

In another assay the target is T3, F256A CLC-K1/barttin (Rattus norvegicus, UniProt Q06393, F256A).
T3 sequence (Q06393 1-687 F256A): T2 sequence (Q06393 1-687) with F256A
T3 sequence (Q8WZ55 1-320 Y98A partner): T1 sequence (Q8WZ55 1-320 Y98A partner)
The assay is described as follows: NFA effect on F256A CLC-K1/barttin, voltage clamp in Xenopus oocytes. Type of assay: cell-based.

In another assay the test system is hCLC-Kb. The following applies: [NFA]ext up to 2 mM; cited from earlier work.
In a further assay the test system is human CLC-Ks. To be noted: HEK293 cells; all concentrations tested, from 0.3 to 2000 μM; cited from earlier work.
For a further assay, the system named is rat CLC-K1. The following applies: HEK293 cells; all concentrations tested, from 0.3 to 2000 μM; cited from earlier work.

The structures appear in SMILES notation. Changes are numbered by the printed parent chain. “Also recorded” adds a separate entry of the source.

For the compound `O=C(O)c1cccnc1Nc1cccc(C(F)(F)F)c1` [NFA, niflumic acid], the “open probability after potentiation by NFA” value at F256A CLC-Ka (judged from variance–mean plots without curvature) is “below 0.5”. The “effect on single channel conductance” value at F256A CLC-Ka (−100 mV and 60 mV, noise analysis) is on record as “does not change significantly”. In addition, the “currents relative to control conditions” value is “about 80%” at CLC-K1 without barttin (10 μM NFA) and roughly 45% at CLC-K1 without barttin (200 μM NFA). Also, the “effect of NFA on currents” value is given as “transient potentiation” on F256A CLC-K1/barttin (10 μM NFA, steady state currents not increased); “inhibited; also recorded: no longer potentiated” with human CLC-Ks; “inhibited” with rat CLC-K1. Also, the “maximal potentiation (I1/I0)” value at F256A CLC-K1/barttin (transient potentiation extrapolated by single-exponential function) is recorded as “around 1.9 fold”. Besides, the “effect on hCLC-Kb” value in the assay on hCLC-Kb is “potentiated”.

(Values after PMC4331650 (Biochimica et Biophysica Acta, 2014).)
